B1: RoSBD: starch binding domain, CBM family 21, derived from Rhizopus oryzae glucoamylase, produced in E. coli (protein)
chain: ASIPSSASVQLDSYNYDGSTFSGKIYVKNIAYSKKVTVIYADGSDNWNNNGNTIAASYSAPISGSNYEYWTFSASINGIKEFYIKYEVSGKTYYDNNNSANYQVST

Assays:
[1] = target: T1, RoSBD binding to HIV Ag & Ab positive panel (Rhizopus oryzae, UniProt P07683); test: Competition of HIV-RoSBD binding, ELISA on RoSBD coated plate; conditions: 10 mM competitor, FIG. 6A
T1 construct: made in house; host or cells: E. coli (pET23a)
Method: (§1) Ten millimolar maltoheptaose (G7 glycan) and β-cyclodextrin (βCD) (Sigma-Aldrich, St. Louis, Mo.) were dissolved in PBS plus 5% BSA and mixed with the same volume of HIV Ag & Ab positive panel at 37° C. for 1 hr. After adding the mixture to RoSBD coated plate (100 nM in 0.05 M Tris-Hcl, pH 8) or AnSBD coated plate (100 nM in 0.05 M sodium bicarbonate buffer, pH 9.5) at 37° C. for 1 hr, 100 μL HRP coupled HIV1 recombinant gp120 antigen conjugate (0.05 μg/mL) was used for detection.
(§2) HIV Ag & Ab positive panel was separately mixed with the same volume of 500 nM human IgG1 secondary antibody, 2G12 monoclonal antibody, and 250 nM HIV1 gp140 antigen at 37° C. for 1 hr. After adding the mixture to (a) RoSBD coated (100 nM in 0.05 M Tris-Hcl, pH 8) and (b) AnSBD coated plate (100 nM in 0.05 M sodium bicarbonate buffer, pH 9.5) individually at 37° C. for 1 hr, 100 μL HRP coupled HIV1 recombinant gp120 antigen conjugate (0.05 μg/mL) was used for detection.

[2] = target: T2, AnSBD binding to HIV Ag & Ab positive panel (Aspergillus niger, UniProt P69328); conditions: 10 mM competitor; AnSBD coated plate; FIG. 6B
T2 construct: made in house; host or cells: E. coli (pET15b, printed 'pET15Bb')
Method: as §1, §2

[3] = Glycan array screening of RoSBD (CFG Core H, version 3.1); type: binding; conditions: among 377 glycans; FIG. 1A
Method: RoSBD was produced in E. coli system using pET23a expression vector and purified using amylose resin as previously described. Glycan microarray analyses were conducted by the Consortium for Functional Glycomics, Core H facility. The array contained a total of 377 different natural and synthetic glycans and version 3.1 was used for the analyses reported here. Briefly, RoSBD was diluted to […] in sodium acetate binding buffer (50 mM sodium acetate pH 5.5, 1% BSA and 0.05% Tween-20). Seventy microliters was applied to the printed surface of the array, coverslipped, and incubated at room temperature in a humidified chamber away from light for 1 hr. After the incubation, the coverslip was removed and rinsed four times in TSM buffer [50 mM Tris-HCI (pH 7.5), 10 mM MgCl2, and 0.5 M sucrose] and four times in TSM buffer. Seventy microliters of Anti-RoSBD monoclonal antibody, diluted to 1:200 in PBS binding buffer, was applied to the printed surface of the microarray and incubated in a humidified chamber for 1 hr. Washes were performed as above. To detect binding, the secondary antibody incubation was performed with Alexa488-labeled goat anti-mouse IgG at […] in PBS buffer for one hour in a humidified chamber, followed by wash steps. The binding image was read in a Perkin-Elmer Microarray XL4000 scanner and analyzed using Imagene (V.6) image analysis software. […]

[4] = tested on: HIV Ag & Ab positive panel (possibly native HIV gp120 antigen glycoprotein); test: HIV-RoSBD binding analysis, sandwich ELISA on SBD coated plates
Method: At first 100 μL of 100 nM AnSBD/RoSBD were coated on individual well of a 96-well plate (Greiner-Bio One GmbH, Frickenhausen, Germany) in sodium bicarbonate buffer (pH 9.5)/Tris-HCl buffer (pH 8) via 16-hr incubation at 4° C. The plate was washed with PBST [10 mM Phosphate Buffered Saline (pH 7.0) plus 0.05% Tween-20], then 200 μL blocking buffer [0.01 M Phosphate Buffered Saline (pH 7.0) plus 5% BSA] was added to each well and incubated at 37° C. for 2 hr. The blocking buffer was removed and the plate was dried at 25° C. for 1 hr. […] To test the specificity of the SBD binding to HIV, HCV test sample and HCV recombinant antigen (Core+NS3+NS5)-HRP conjugate (0.33 μg/mL) were analyzed following the same protocol in parallel. Finally, the plates were developed by adding 100 μL 3,3′,5,5′-tetramethylbenzidibe (TMB) at 37° C. for […] The absorbance was measured at 450 nm in ELISA reader after the reaction was stopped by addition of 100 μL 2 N H2SO4 in each well. These absorbance values were compiled as a statistical value (Cut off value; COV) and described in terms of cut off index (COI) value. The COV was calculated as the OD value of negative control (Normal Human Serum) plus 0.1 (COV=NC+0.1). The COI value was calculated as the OD value of test sample divided by COV. […]

| Molecule | competitive inhibition rate [1] [%] | competitive inhibition rate [2] [%] | glycan recognition (interaction signal on glycan array) [3] | specificity of binding, HIV panel versus Anti-HCV mixed titer performance panel ([4]; Anti-HCV panel PHV205-24 in parallel, P<0.0001, FIG. 4B) | maximal COI value of binding ([4]; HIV Ag & Ab positive panel #9144532, COI > 1 is positive, FIG. 4A) |
| --- | --- | --- | --- | --- | --- |
| maltoheptaose | 24.4 | 45.9 | – | – | – |
| OC[C@H]1O[C@@H]2O[C@H]3[C@H](O)[C@@H](O)[C@@H](O[C@H]4[C@H](O)[C@@H](O)[C@@H](O[C@H]5[C@H](O)[C@@H](O)[C@@H](O[C@H]6[C@H](O)[C@@H](O)[C@@H](O[C@H]7[C@H](O)[C@@H](O)[C@@H](O[C@H]8[C@H](O)[C@@H](O)[C@@H](O[C@H]1[C@H](O)[C@H]2O)O[C@@H]8CO)O[C@@H]7CO)O[C@@H]6CO)O[C@@H]5CO)O[C@@H]4CO)O[C@@H]3CO [β-cyclodextrin] | 23.1 | 14.3 | – | – | – |
| B1 | – | – | only Manα(1,2)Manα(1,2)Manα(1,2)Manα(1,3) (No. 187) showed evident interaction signal | specific | 2.298 |

— patent US8293465B2, “Method for the detection of human immunodeficiency virus envelope (HIV) glycoprotein utilizing carbohydrate binding module (CBM) 20 or 21” (priority 2009, dated 2012)
